Data taken from patent publication US20120208781A1, “AMINOGLYCOSIDE DOSING REGIMENS” (Achaogen, Inc., priority 2009, published 2012).
“Also recorded” adds a separate entry of the source. Like-named read-outs stand apart in the source and are kept apart here.

Key:
[1] = Pharmacokinetics of Compound 1 after single bolus IV injection in rats; type: in vivo, Sprague Dawley rats; conditions: for half-life / AUC(0-inf) / C0 / clearance / MRT inf / Vd: Sprague Dawley, rat, plasma, 10 mg/kg
Protocol: Male CD-1 mice, Sprague Dawley rats, and beagle dogs were administered Compound 1 intravenously. Compound 1 was preformulated as a sterile isotonic solution of 10 mg/mL in PBS. Specifically, male CD-1 mice were administered a single bolus IV injection of the Compound at 10 mg/kg, via a bolus IV injection into the tail vein. Two blood samples per mouse were collected by retro-orbital puncture into tubes containing the anticoagulant K2EDTA prior to dosing and at 0.033, 0.083, 0.25, 0.5, 1 and 24 hours. Rats were administered Compound 1 at 10 mg/kg via a bolus IV injection into the tail vein. Twelve blood samples per rat were collected via a jugular vein cannula into tubes containing the anticoagulant K2EDTA at various timepoints (i.e., 0.033, 0.083, 0.25, 0.5, 1, 2, 4, 6, 8, 10, 12, and 24 hours). Male beagle dogs were administered Compound 1 at 10 mg/kg through a temporary percutaneous catheter placed in a peripheral vein. Whole blood samples (0.5 mL) were collected from each dog prior to dosing and at 0.033, 0.083, 0.25, 0.5, 1, 2, 4, 6, 8, and 24 hours via direct venipuncture of a jugular or cephalic vein into tubes containing the anticoagulant K2EDTA. A sparse sampling method was employed to conserve animals and provide the best data possible from fewer mice. Samples were centrifuged, and plasma was collected and transferred into a new tube and frozen at −80° C. until they were analyzed.
Blood, urine, and kidney samples collected over 24 hours were analyzed for Compound 1 levels using LC-MS/MS. Method performance was acceptable in the concentration ranges necessary to determine plasma levels. Compound 1 plasma concentrations were determined by comparing Compound 1 concentration in the sample to a standard curve derived from LC-MS/MS measurements of the analyte. The standard curve fit was linear with a 1/x^2 weighting.
(§1) Bioanalytical data analyses were carried out using Analyst software (version 1.4.1, Applied Biosystems, Toronto, ON, Canada). […] PK parameters were determined by noncompartmental analysis using WinNonLin. Plasma protein binding was determined using equilibrium dialysis. In vitro stability was determined using commercially available plasma, microsomes and hepatocytes.

[2] = Plasma protein binding by equilibrium dialysis; type: in vitro ADME
Protocol: as §1

[3] = test system: cochlear function, vestibular function; assay: First-in-human phase 1 study: cochlear and vestibular function (ototoxicity); type: in vivo; conditions: healthy volunteers
Protocol: Safety evaluation was based on clinical observations, vital sign measurements, laboratory tests, physical examination, electrocardiogram, cochlear function, vestibular function testing, and reported adverse events. Cochlear function was evaluated by pure tone audiometry with bone conduction and otoacoustic emission (OAE) testing. Vestibular function was evaluated by electronystagmography (ENG) and Dynamic Visual Acuity (DVA) test. Laboratory tests included complete blood count (CBC), serum chemistries, and urinalysis. BUN and creatinine (Cr) were assessed daily on dosing days to allow the Investigator to monitor renal function. Results were used as criteria for dose escalation. The glomerular filtration rate (GFR) was estimated using iothalamate plasma measurements before dosing and after the multiple dose periods. GFR was also assessed by Cr clearance before dosing and after the multiple dose periods.
Complete physical examinations and ECGs were completed at screen and 2 days after the last multiple-dose. Abbreviated physical examinations were completed prior to the single-dose and prior to the first multiple-dose (those receiving IMP for 10 days have an additional examination prior to the 6th multiple-dose infusion). Vital signs were assessed at screen and all visits during treatment period. Additional safety assessments, including pure tone audiometry and ENG caloric, testing was performed or will be performed at 3 and 6 months after the last dose. Concomitant therapies and adverse events are assessed throughout the screen and treatment period.

[4] = test system: hearing function; assay: 28-day guinea pig ototoxicity study of Compound 1: ABR and observations
Protocol: Additionally, four groups of four male and four female animals were utilized for toxicokinetic (TK) sampling and received the control or test article in the same manner as the main study groups at respective dose levels of 0 (Vehicle Control), 8, 30, or 80 mg/kg.
Physical examinations were conducted pretest on all animals and prior to study termination for main study animals. […] Blood samples for determination of the plasma concentrations of the test article were collected from TK animals at designated time points on Day 1 and Day 14. After blood collection, the TK animals were euthanized and the carcasses were discarded.

[5] = iv, 10 mg/kg single bolus IV, Mean ± SD
[6] = iv, 10 mg/kg single bolus IV, Rat 101
[7] = iv, 10 mg/kg single bolus IV, Rat 102
[8] = iv, 10 mg/kg single bolus IV, Rat 103

For `CN[C@@H]1[C@@H](O)[C@@H](O[C@@H]2[C@@H](O)[C@H](O[C@H]3OC(CNCCO)=CC[C@H]3N)[C@@H](N)C[C@H]2NC(=O)[C@@H](O)CCN)OC[C@]1(C)O` [Compound 1, 6′-(2-Hydroxy-ethyl)-1-(4-amino-2(S)-hydroxy-butyryl)-sisomicin], the tissue distribution [1] was “distributed to rat kidneys”, the half-life ([1]; intravenous, read-out: t½ (renal clearance) (converted)) was roughly 60 min and the AUC(0-inf) [1, 5] was 15700 ng·h/mL. It also gave a C0 [1, 5] of 37500 ng/mL, a clearance [1, 5] of 10.8 mL/min/kg and an MRT inf ([1]; iv, 10 mg/kg single bolus IV, Mean ± SD, read-out: MRT0-∞) of 42 min. For the same compound, the Vd ([1]; iv, 10 mg/kg single bolus IV, Mean ± SD, read-out: Vss) was 0.437 L/kg, the half-life ([1]; iv, 10 mg/kg single bolus IV, Mean ± SD, read-out: t1/2 (converted)) was 56.4 min and the AUC(0-inf) [1, 6] was 13800 ng·h/mL. It also gave a C0 [1, 6] of 41700 ng/mL, a clearance [1, 6] of 12.1 mL/min/kg and an MRT inf ([1]; iv, 10 mg/kg single bolus IV, Rat 101, read-out: MRT0-∞) of 36 min. It also gave a Vd ([1]; iv, 10 mg/kg single bolus IV, Rat 101, read-out: Vss) of 0.403 L/kg, a half-life ([1]; iv, 10 mg/kg single bolus IV, Rat 101, read-out: t1/2 (converted)) of 57 min and an AUC(0-inf) [1, 7] of 18500 ng·h/mL. For the same compound, the C0 [1, 7] was 42200 ng/mL, the clearance [1, 7] was 9.02 mL/min/kg and the MRT inf ([1]; iv, 10 mg/kg single bolus IV, Rat 102, read-out: MRT0-∞) was 48 min. The Vd ([1]; iv, 10 mg/kg single bolus IV, Rat 102, read-out: Vss) was 0.434 L/kg, the half-life ([1]; iv, 10 mg/kg single bolus IV, Rat 102, read-out: t1/2 (converted)) was 55.8 min and the AUC(0-inf) [1, 8] was 14800 ng·h/mL. The C0 [1, 8] was 28800 ng/mL, the clearance [1, 8] was 11.3 mL/min/kg and the MRT inf ([1]; iv, 10 mg/kg single bolus IV, Rat 103, read-out: MRT0-∞) was 42 min. For the same compound, the Vd ([1]; iv, 10 mg/kg single bolus IV, Rat 103, read-out: Vss) was 0.473 L/kg, the half-life ([1]; iv, 10 mg/kg single bolus IV, Rat 103, read-out: t1/2 (converted)) was 55.8 min and the “Cmax and exposure (AUC) dose linearity” value ([1]; intravenous dosing) was “dose linear to 75 mg/kg”. The fraction unbound [2] was greater than 0.8, the “cochlear function (pure tone audiometry, bone conduction, OAE)” value [3] was “did not reveal any treatment related effects” and the ototoxicity signal [3] was “No ototoxocity signal”. For the same compound, the “vestibular function (ENG and DVA)” value [3] was “did not reveal any treatment related effects”, the “animals with elevation of ABR thresholds (mild, 4 and 10 kHz, conductive)” value ([4]; guinea pigs, 8 mg/kg dose group) was “one male and one female” and the “ABR pre- to post-dosing hearing threshold shift” value ([4]; guinea pigs, 8, 30, 80 mg/kg for 14 days, 4, 10, 20 kHz) was “no significant pre- to post-dosing hearing threshold shift at any frequency; also recorded: did not have an adverse effect”. For the same compound, the “functional hearing loss (ABR)” value ([4]; guinea pigs, 14 days, up to 80 mg/kg/day) was “no functional hearing loss; also recorded: None of the animals treated with Compound 1 at any dose showed any functional hearing loss” and the “mortality and general observations” value ([4]; guinea pigs, SC 8, 30, 80 mg/kg for 14 days) was “did not produce mortality and was without effect on clinical observations, body weights, physical examinations, ABR evaluations, macroscopic findings, middle ear assessments, or ossicle mobility”.
